Reference: ChEMBL document CHEMBL3045309, “Synthesis and cardiovascular activity of difluro-substituted hexahydroquinoline” (2008)

Assays:
Ileum = test: Inhibition of barium chloride-induced contraction inRattus norvegicus albino (rat) ileum at 10^-5 mol/l after 10 min; assay type: functional
Thoracic artery = test: Inhibition of potassium chloride-induced contraction in Rattus norvegicus albino (rat) thoracic artery at 10^-5 mol/l after 10 min; assay type: functional

Compound | inhibition at 10 µM (Ileum) [%] | inhibition at 10 µM (Thoracic artery) [%]
COC(=O)C1=C(C)NC2=C(C(=O)CC(C)(C)C2)C1c1c(F)cccc1F (stereo unspecified) | 74.6 | 
CCN(CC)C(=O)C1=C(C)NC2=C(C(=O)C(C)(C)CC2)C1c1cccc(F)c1F (stereo unspecified) | 54.2 | 37
COC(=O)C1=C(C)NC2=C(C(=O)C(C)(C)CC2)C1c1c(F)cccc1F (stereo unspecified) | 79.4 | 23.6
CCOC(=O)C1=C(C)NC2=C(C(=O)C(C)(C)CC2)C1c1cc(F)ccc1F (stereo unspecified) | 86.8 | 21.4
COC(=O)C1=C(C)NC(C)=C(C(=O)OCCN(C)Cc2ccccc2)C1c1cccc([N+](=O)[O-])c1 (stereo unspecified) [NICARDIPINE] | 70 | 15.9
CCN(CC)C(=O)C1=C(C)NC2=C(C(=O)CC(C)(C)C2)C1c1cccc(F)c1F (stereo unspecified) | 51.3 | 31.5
